Results published in PubChem BioAssay AID2060483 (Molecular Pharmacology Branch, DTP, NCI, 2025).
Values belong to the compound of their own block, whether it stands above or below them.

Tested on: K24384-001-R-PDC complex spheroids, viability
Assay: Anticancer human tumor K24384-001-R-PDC patient-derived pancreatic adenocarcinoma cell line growth inhibition [GQUAD]
Settings: for IC50: curve of first compound; for viability, T/C: stronger effect = lower value
How it was run: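 Multi-cell-type spheroids of tumor cells with HUVEC and mesenchymal stem cells, treated with drug combinations. Concentrations descend in half-log steps from near clinical Cmax, or from 10 microM where Cmax is unknown; viability read-out.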

[1] = second compound 0.0316 µM, first compound 0.0316 µM
[2] = second compound 0.0316 µM, first compound 0.1 µM
[3] = second compound 0.0316 µM, first compound 0.316 µM
[4] = second compound 0.0316 µM, first compound 1 µM
[5] = second compound 0.0316 µM, first compound 3.16 µM
[6] = second compound 0.0316 µM, first compound 10 µM
[7] = second compound 0.1 µM, first compound 0.0316 µM
[8] = second compound 0.1 µM, first compound 0.1 µM
[9] = second compound 0.1 µM, first compound 0.316 µM
[10] = second compound 0.1 µM, first compound 1 µM
[11] = second compound 0.1 µM, first compound 3.16 µM
[12] = second compound 0.1 µM, first compound 10 µM
[13] = second compound 0.316 µM, first compound 0.0316 µM
[14] = second compound 0.316 µM, first compound 0.1 µM
[15] = second compound 0.316 µM, first compound 0.316 µM
[16] = second compound 0.316 µM, first compound 1 µM
[17] = second compound 0.316 µM, first compound 3.16 µM
[18] = second compound 0.316 µM, first compound 10 µM
[19] = second compound 1 µM, first compound 0.0316 µM
[20] = second compound 1 µM, first compound 0.1 µM
[21] = second compound 1 µM, first compound 0.316 µM
[22] = second compound 1 µM, first compound 1 µM
[23] = second compound 1 µM, first compound 3.16 µM
[24] = second compound 1 µM, first compound 10 µM
[25] = second compound 3.16 µM, first compound 0.0316 µM
[26] = second compound 3.16 µM, first compound 0.1 µM
[27] = second compound 3.16 µM, first compound 0.316 µM
[28] = second compound 3.16 µM, first compound 1 µM
[29] = second compound 3.16 µM, first compound 3.16 µM
[30] = second compound 3.16 µM, first compound 10 µM
[31] = second compound 10 µM, first compound 0.0316 µM
[32] = second compound 10 µM, first compound 0.1 µM
[33] = second compound 10 µM, first compound 0.316 µM
[34] = second compound 10 µM, first compound 1 µM
[35] = second compound 10 µM, first compound 3.16 µM
[36] = second compound 10 µM, first compound 10 µM
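Note: spheroids exposed to compounds for seven days.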

SMILES: CC(=O)O[C@H]1C(=O)[C@@]2(C)[C@H]([C@H](OC(=O)c3ccccc3)[C@]3(O)C[C@H](OC(=O)[C@H](O)[C@@H](NC(=O)c4ccccc4)c4ccccc4)C(C)=C1C3(C)C)[C@]1(OC(C)=O)CO[C@@H]1C[C@@H]2O + CN(C)c1ccc(Nc2c3ccc(NC(=O)CCN4CCCC4)cc3nc3cc(NC(=O)CCN4CCCC4)ccc23)cc1
IC50 (second compound 0.0316 µM): < 31.6 nM
IC50 (second compound 0.1 µM): < 31.6 nM
IC50 (second compound 0.316 µM): < 31.6 nM
IC50 (second compound 1 µM): < 31.6 nM
IC50 (second compound 3.16 µM): < 31.6 nM
IC50 (second compound 10 µM): < 31.6 nM
viability, T/C [1]: 32.2%
viability, T/C [2]: 22.9%
viability, T/C [3]: 20.5%
viability, T/C [4]: 20.1%
viability, T/C [5]: 22.4%
viability, T/C [6]: 25.3%
viability, T/C [7]: 34.5%
viability, T/C [8]: 22.1%
viability, T/C [9]: 18.5%
viability, T/C [10]: 21.3%
viability, T/C [11]: 20.7%
viability, T/C [12]: 25.7%
viability, T/C [13]: 37.3%
viability, T/C [14]: 22.4%
viability, T/C [15]: 17.6%
viability, T/C [16]: 19.8%
viability, T/C [17]: 19.5%
viability, T/C [18]: 25.7%
viability, T/C [19]: 33.4%
viability, T/C [20]: 23.7%
viability, T/C [21]: 19.3%
viability, T/C [22]: 19.9%
viability, T/C [23]: 26.1%
viability, T/C [24]: 27.5%
viability, T/C [25]: 29.4%
viability, T/C [26]: 20.7%
viability, T/C [27]: 24.4%
viability, T/C [28]: 17.4%
viability, T/C [29]: 23.2%
viability, T/C [30]: 30.1%
viability, T/C [31]: 38.2%
viability, T/C [32]: 26.4%
viability, T/C [33]: 24.9%
viability, T/C [34]: 24.5%
viability, T/C [35]: 33.9%
viability, T/C [36]: 40.9%

SMILES: C=CC(=O)N1CCN(c2nc(=O)n(-c3c(C)ccnc3C(C)C)c3nc(-c4c(O)cccc4F)c(F)cc23)C(C)C1 (stereo unspecified) + CN(C)c1ccc(Nc2c3ccc(NC(=O)CCN4CCCC4)cc3nc3cc(NC(=O)CCN4CCCC4)ccc23)cc1
IC50 (second compound 0.0316 µM): > 10000 nM
IC50 (second compound 0.1 µM): > 10000 nM
IC50 (second compound 0.316 µM): > 10000 nM
IC50 (second compound 1 µM): > 10000 nM
IC50 (second compound 3.16 µM): > 10000 nM
IC50 (second compound 10 µM): > 10000 nM
viability, T/C [1]: 95.5%
viability, T/C [2]: 93.2%
viability, T/C [3]: 107%
viability, T/C [4]: 104%
viability, T/C [5]: 99.6%
viability, T/C [6]: 93.3%
viability, T/C [7]: 100%
viability, T/C [8]: 102%
viability, T/C [9]: 112%
viability, T/C [10]: 121%
viability, T/C [11]: 123%
viability, T/C [12]: 87.8%
viability, T/C [13]: 100%
viability, T/C [14]: 101%
viability, T/C [15]: 105%
viability, T/C [16]: 96.6%
viability, T/C [17]: 128%
viability, T/C [18]: 98.6%
viability, T/C [19]: 101%
viability, T/C [20]: 129%
viability, T/C [21]: 113%
viability, T/C [22]: 115%
viability, T/C [23]: 147%
viability, T/C [24]: 85.7%
viability, T/C [25]: 101%
viability, T/C [26]: 100%
viability, T/C [27]: 100%
viability, T/C [28]: 93%
viability, T/C [29]: 110%
viability, T/C [30]: 79%
viability, T/C [31]: 81.6%
viability, T/C [32]: 99.7%
viability, T/C [33]: 82.3%
viability, T/C [34]: 109%
viability, T/C [35]: 89%
viability, T/C [36]: 62.2%

IC50 (second compound 0.0316 µM): 477 nM
IC50 (second compound 0.1 µM): 325 nM
IC50 (second compound 0.316 µM): 151 nM
IC50 (second compound 1 µM): < 31.6 nM
IC50 (second compound 3.16 µM): < 31.6 nM
IC50 (second compound 10 µM): < 31.6 nM
SMILES: O=C(NO)c1cnc(N2CCN(S(=O)(=O)c3ccc4ccccc4c3)CC2)nc1 + Cc1cnc(CNC(=O)c2c(=O)c3ccc(N4CCCN(C)CC4)nc3n3c2sc2ccccc23)cn1
viability, T/C [1]: 86.3%
viability, T/C [2]: 78%
viability, T/C [3]: 77.2%
viability, T/C [4]: 0.9%
viability, T/C [5]: 0.08%
viability, T/C [6]: 0.11%
viability, T/C [7]: 65.2%
viability, T/C [8]: 78.7%
viability, T/C [9]: 51.2%
viability, T/C [10]: 1.11%
viability, T/C [11]: 0.09%
viability, T/C [12]: 0.11%
viability, T/C [13]: 42.7%
viability, T/C [14]: 73%
viability, T/C [15]: 35.8%
viability, T/C [16]: 0.16%
viability, T/C [17]: 0.07%
viability, T/C [18]: 0.09%
viability, T/C [19]: 38.9%
viability, T/C [20]: 43.9%
viability, T/C [21]: 31.3%
viability, T/C [22]: 0.12%
viability, T/C [23]: 0.07%
viability, T/C [24]: 0.11%
viability, T/C [25]: 33.3%
viability, T/C [26]: 34.1%
viability, T/C [27]: 16.3%
viability, T/C [28]: 0.12%
viability, T/C [29]: 0.1%
viability, T/C [30]: 0.14%
viability, T/C [31]: 0.16%
viability, T/C [32]: 0.23%
viability, T/C [33]: 0.19%
viability, T/C [34]: 0.16%
viability, T/C [35]: 0.17%
viability, T/C [36]: 0.16%
